Active and inactive are the calls of the source. How the calls were made is not given here.
Molecular target: Caspase-6 (Homo sapiens) (UniProt P55212)
Experiment: human caspase-6 inhibitors, dose response, biochemical, VEID-R110 fluorescence, cherry-pick (AID 720632)
Conditions: caspase-6, VEID-R110 fluorogenic substrate

Chain of Caspase-6 (Homo sapiens) (P55212 24-179 limits assumed): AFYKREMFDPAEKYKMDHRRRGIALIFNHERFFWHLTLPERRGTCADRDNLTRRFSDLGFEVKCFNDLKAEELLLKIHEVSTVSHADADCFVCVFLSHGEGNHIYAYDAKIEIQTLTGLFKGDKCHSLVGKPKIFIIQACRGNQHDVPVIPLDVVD
Chain of Caspase-6 (Homo sapiens) (P55212 194-293 limits assumed): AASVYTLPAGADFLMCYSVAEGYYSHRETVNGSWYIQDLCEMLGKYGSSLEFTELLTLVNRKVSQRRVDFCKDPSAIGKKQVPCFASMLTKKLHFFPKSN

**Q.** How did the “activity change, negative = inhibition” value (at 26 µM (top of the series)) turn out when `Cc1cccc(-n2c(C)nc3cc(C(=O)NCCN4CCOCC4)ccc32)c1` was run?
**A.** The value was “inactive”.

**Q.** How did the “activity change, negative = inhibition” value (at 26 µM (top of the series)) turn out when `COc1cccc(CN(C)CC(O)COc2cc(Cl)ccc2Cl)c1` (stereo not drawn) was run?
**A.** Its value is “inactive”.

**Q.** Which “activity change, negative = inhibition” value (at 26 µM (top of the series)) does the source give for `COc1cccc(C(NC(=O)C2CCN(CCCOc3ccccc3)CC2)c2ccccn2)c1` (stereo not drawn) here?
**A.** Its value is “inactive”.

**Q.** How did the “activity change, negative = inhibition” value (at 26 µM (top of the series)) turn out when `CC(CNC(=O)c1ccc(OC2CCN(Cc3ccccn3)CC2)cc1)c1ccccc1` (stereo not drawn) was run?
**A.** Its value is “inactive”.

**Q.** Which “activity change, negative = inhibition” value (at 26 µM (top of the series)) does the source give for `NCC[C@@H]1CC[C@H](NC(=O)c2ccccc2F)[C@@H](CO)O1` here?
**A.** The value was “inactive”.

**Q.** Which “activity change, negative = inhibition” value (at 26 µM (top of the series)) does the source give for `CCCN1C[C@H](C)[C@H](OC)CN(C)C(=O)c2ccc(NC(=O)c3ccccc3)cc2OC[C@@H]1C` here?
**A.** Its value is “inactive”.

**Q.** How did the “activity change, negative = inhibition” value (at 26 µM (top of the series)) turn out when `CO[C@@H]1CN(C)C(=O)c2ccc(NC(=O)c3ccccc3)cc2OC[C@H](C)N(C(=O)C2CC2)C[C@@H]1C` was run?
**A.** Its value is “inactive”.

**Q.** How did the “activity change, negative = inhibition” value (at 26 µM (top of the series)) turn out when `CC(=O)N1CCc2c(sc(NC(=O)Cc3ccccc3)c2C(N)=O)C1` was run?
**A.** The value was “inactive”.

**Q.** How did the “activity change, negative = inhibition” value (at 26 µM (top of the series)) turn out when `Cc1ccc(/C(N)=N/OC(=O)c2ccc3ccccc3c2)cc1` was run?
**A.** The value was “inactive”.

**Q.** With `O=C(O)C1Sc2[nH]c(=O)sc2C2c3ccc(O)cc3OC(=O)C12` (stereo not drawn) as the compound, how does the “activity change, negative = inhibition” value (at 26 µM (top of the series)) read?
**A.** Its value is “inactive”.

**Q.** With `O=C(CCCn1c(=S)[nH]c2cc3c(cc2c1=O)OCO3)N1CCN(c2ccccc2F)CC1` as the compound, how does the “activity change, negative = inhibition” value (at 26 µM (top of the series)) read?
**A.** The value was “inactive”.

**Q.** With `Cn1c(CSCCOc2ccccc2)n[nH]c1=S` as the compound, how does the “activity change, negative = inhibition” value (at 26 µM (top of the series)) read?
**A.** Its value is “inactive”.

**Q.** `CC(C)=NNc1cc([N+](=O)[O-])cc2c1C(=O)N(C)S2=O` (stereo not drawn) was tested. Which “activity change, negative = inhibition” value (at 26 µM (top of the series)) did it give?
**A.** Its value is “inactive”.

**Q.** Which “activity change, negative = inhibition” value (at 26 µM (top of the series)) does the source give for `CN=C(Nc1cccnc1)c1cccc(C(F)(F)F)c1` here?
**A.** Its value is “inactive”.

**Q.** For `O=C([C@H]1[C@H](CO)[C@H]2Cn3c(cccc3=O)[C@H]2N1Cc1cc(F)ccc1F)N1CCOCC1`, which “activity change, negative = inhibition” value (at 26 µM (top of the series)) is on record?
**A.** The value was “inactive”.

**Q.** For `Cn1c(NN=O)nc2ccccc21`, which “activity change, negative = inhibition” value (at 26 µM (top of the series)) is on record?
**A.** Its value is “inactive”.

**Q.** How did the “activity change, negative = inhibition” value (at 26 µM (top of the series)) turn out when `CN1CCN(NC(=O)Nc2ccc(F)cc2)CC1` was run?
**A.** Its value is “inactive”.

**Q.** How did the “activity change, negative = inhibition” value (at 26 µM (top of the series)) turn out when `Oc1ccc(Br)cc1CNc1cccc2cccnc12` was run?
**A.** Its value is “inactive”.

**Q.** With `O=C(COC(=O)c1ccc([N+](=O)[O-])o1)Nc1ccc2c(c1)OC(F)(F)O2` as the compound, how does the “activity change, negative = inhibition” value (at 26 µM (top of the series)) read?
**A.** Its value is “inactive”.

**Q.** How did the “activity change, negative = inhibition” value (at 26 µM (top of the series)) turn out when `NC[C@H](O)c1ccc(O)c(O)c1` was run?
**A.** Its value is “inactive”.

**Q.** With `Cc1csc(=O)n1CCC(=O)OCc1nnc(-c2ccc([N+](=O)[O-])cc2)o1` as the compound, how does the “activity change, negative = inhibition” value (at 26 µM (top of the series)) read?
**A.** Its value is “inactive”.

**Q.** With `CC1(Oc2cnc(Cl)c3ccccc23)CCN(Cc2ccc(OC(F)(F)F)cc2)C1` (stereo not drawn) as the compound, how does the “activity change, negative = inhibition” value (at 26 µM (top of the series)) read?
**A.** The value was “inactive”.

**Q.** `CCCC(=O)Nc1ccc2c(c1)OC[C@@H](C)N(Cc1ccc(F)cc1)C[C@H](C)[C@@H](OC)CN(C)C2=O` was tested. Which “activity change, negative = inhibition” value (at 26 µM (top of the series)) did it give?
**A.** Its value is “inactive”.

**Q.** How did the “activity change, negative = inhibition” value (at 26 µM (top of the series)) turn out when `CSc1ccccc1NC(=O)Nc1ccccc1` was run?
**A.** Its value is “inactive”.

**Q.** For `O=C(COC(=O)c1ccc([N+](=O)[O-])o1)Nc1ccc(N2CCOCC2)cc1`, which “activity change, negative = inhibition” value (at 26 µM (top of the series)) is on record?
**A.** The value was “inactive”.

**Q.** With `COc1cccc(NS(=O)(=O)c2ccc3c(c2)NC(=O)CC(=O)N3)c1` as the compound, how does the “activity change, negative = inhibition” value (at 26 µM (top of the series)) read?
**A.** Its value is “inactive”.

**Q.** `COCC(=O)N1[C@@H]2CN(C(=O)Nc3ccccc3F)c3ccccc3[C@@H]2[C@@H]1CO` was tested. Which “activity change, negative = inhibition” value (at 23.5 µM (top of the series)) did it give?
**A.** Its value is “inactive”.

**Q.** How did the “activity change, negative = inhibition” value (at 26 µM (top of the series)) turn out when `COc1ccc(CCNC(=O)c2cc3cccc(OC)c3oc2=O)cc1OC` was run?
**A.** Its value is “inactive”.

**Q.** For `COc1ccc(S(=O)(=O)N2CCOCC2)cc1C(=O)NCC(c1ccccc1)c1ccccc1`, which “activity change, negative = inhibition” value (at 26 µM (top of the series)) is on record?
**A.** Its value is “inactive”.

**Q.** `COc1cccc(S(=O)(=O)N2C[C@@H]3N[C@H](C2)C3c2ccc(-c3ccccc3C)cc2)c1` (stereo partly drawn) was tested. Which “activity change, negative = inhibition” value (at 26 µM (top of the series)) did it give?
**A.** The value was “inactive”.

**Q.** With `CCC(C)(C)NC(=O)CN(C(=O)CNS(=O)(=O)c1ccc(F)cc1)c1ccc2c(c1)OCCO2` as the compound, how does the “activity change, negative = inhibition” value (at 26 µM (top of the series)) read?
**A.** Its value is “inactive”.

**Q.** `Cc1ccc(C)c(N2N=C(C(=O)OCc3nnc(-c4ccccc4Br)o3)CCC2=O)c1` was tested. Which “activity change, negative = inhibition” value (at 26 µM (top of the series)) did it give?
**A.** The value was “inactive”.

**Q.** `C#CC(C)(C)NC(=O)c1ccc(-c2ccccc2F)cc1` was tested. Which “activity change, negative = inhibition” value (at 26 µM (top of the series)) did it give?
**A.** Its value is “inactive”.

**Q.** For `CCNC(=S)N1CCCCC1CO` (stereo not drawn), which “activity change, negative = inhibition” value (at 26 µM (top of the series)) is on record?
**A.** Its value is “inactive”.

**Q.** For `Cc1cccc(C(=O)Nc2cccc(NC(=O)c3ccccc3)c2)c1`, which “activity change, negative = inhibition” value (at 26 µM (top of the series)) is on record?
**A.** The value was “inactive”.

**Q.** For `CCOC(=O)N1CCN(C(=O)CN(C)S(=O)(=O)c2ccc3c(c2)c(=O)n(C)c(=O)n3C)CC1`, which “activity change, negative = inhibition” value (at 26 µM (top of the series)) is on record?
**A.** Its value is “inactive”.

**Q.** For `O=C1CC(N2CCSCC2)C(=O)N1c1cccc(Cl)c1` (stereo not drawn), which “activity change, negative = inhibition” value (at 26 µM (top of the series)) is on record?
**A.** Its value is “inactive”.

**Q.** Which “activity change, negative = inhibition” value (at 26 µM (top of the series)) does the source give for `CN1c2ccccc2Sc2cc(N)ccc21` here?
**A.** Its value is “inactive”.

**Q.** How did the “activity change, negative = inhibition” value (at 26 µM (top of the series)) turn out when `CCC1(C)Cc2c(C#N)c(N)n(-c3ccccc3)c(=S)c2CO1` (stereo not drawn) was run?
**A.** The value was “inactive”.

**Q.** With `O=C(NC(=O)c1csnn1)Nc1ccccc1Cl` as the compound, how does the “activity change, negative = inhibition” value (at 26 µM (top of the series)) read?
**A.** The value was “inactive”.

**Q.** For `COCC(=O)Nc1ccc2c(c1)OC[C@@H](C)N(CC1CC1)C[C@H](C)[C@H](OC)CN(C)C2=O`, which “activity change, negative = inhibition” value (at 26 µM (top of the series)) is on record?
**A.** Its value is “inactive”.

**Q.** How did the “activity change, negative = inhibition” value (at 26 µM (top of the series)) turn out when `CCOC(=O)[C@H]1[C@H]2COc3ccc(Cl)cc3[C@@H]2N2C(=O)CN(Cc3ccc(C)cc3)C(=O)[C@@]12C` was run?
**A.** The value was “inactive”.

**Q.** With `CCCN1C[C@@H](C)[C@@H](OC)CN(C)C(=O)c2ccc(NC(=O)c3ccccc3)cc2OC[C@@H]1C` as the compound, how does the “activity change, negative = inhibition” value (at 26 µM (top of the series)) read?
**A.** Its value is “inactive”.

From PubChem BioAssay AID720632 (Broad Institute, 2013)
